Results as given in US20180353501A1 (Arvinas, Inc., priority 2017, published 2018).

Experiments:
Test in all cases: Cellular assay of target protein degradation (MDA-MB-231 cells, ELISA)
Type in all cases: cell-based
cMET = molecular target: T1, cMET (Homo sapiens, UniProt P08581)
T1 construct: endogenous in cells; host or cells: MDA-MB-231
Procedure: (§1) Protocol of the cellular assay of target protein degradation (MDA-MB-231 cells, ELISA).
(§2) For detection Cell Signaling PathScan Sandwich ELISA Catalog#12850 was used. MDA-MB-231 cells and […] were cultured in ATCC DMEM+ATCC FBS and plated 40,000/well 100 μl/well in RPMI P/S with 5% CSS Omega (bovine) serum into a 96 well plate. The cells were grown for a minimum of 3 days, dosed with compounds in 0.1% DMSO (diluted with 5% CSS) and incubated with aspiration for 4 hours. 100 μl of 1× Cell Signaling lysis buffer #9803 (36 mL dH2O+4 mL Cell Signaling lysis buffer) was added. The incubation was placed on cold room shaker for 10 minutes at speed 8-9.5 μl to 100 μL of Diluent was transferred to ELISA plate (0.15 μg/mL-0.075 μg/mL) and stored at 4° C. overnight on cold room shaker speed 5 (gentle swirl) and then shaken next morning at 37° C. for 30 minutes. The preparation was washed 4×200 μl with ELISA wash buffer and aspirated with eight-channel aspirator. 100 μl/well of target protein detection antibody was added after, which the preparation was covered and shaken at 37° C. for 1 hour. 100 μl TMB was added, and the mixture was shaken for 5 min while under observation. When TMB turned light blue, 100 μl of Stop solution was added, and the mixture was shaken and read at 450 nm. Also read at 562 nm for background subtraction.

p38δ = molecular target: T2, p38δ (Homo sapiens, UniProt O15264); conditions: for DC50: read-out: p38δDC50/nM [MDA-MB-231]
T2 construct: endogenous in cells; host or cells: MDA-MB-231 (intact cells for degradation; cleared cell lysate for CETSA)
T2 sequence (O15264 1-365): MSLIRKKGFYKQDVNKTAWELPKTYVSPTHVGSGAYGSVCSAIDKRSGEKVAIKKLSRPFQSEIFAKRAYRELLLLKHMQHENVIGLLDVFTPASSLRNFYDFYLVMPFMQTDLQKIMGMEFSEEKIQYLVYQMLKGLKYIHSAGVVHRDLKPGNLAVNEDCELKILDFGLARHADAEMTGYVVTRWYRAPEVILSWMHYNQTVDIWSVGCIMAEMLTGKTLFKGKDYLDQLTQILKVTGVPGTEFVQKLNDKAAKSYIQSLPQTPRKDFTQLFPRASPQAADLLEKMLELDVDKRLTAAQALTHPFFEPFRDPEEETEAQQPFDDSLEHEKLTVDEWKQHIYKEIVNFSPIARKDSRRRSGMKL
Procedure: as §1, §2

p38α = molecular target: T3, p38α (Homo sapiens, UniProt Q16539)
T3 construct: selectively degrades p38α, whereas exemplary PROTAC 46 (10-atom linker, phenyl attachment) selectively degrades p38δ in MDA-MB-231 cells; endogenous in cells; host or cells: MDA-MB-231
Procedure: as §1, §2

T3 sequence (Q16539 whole entry): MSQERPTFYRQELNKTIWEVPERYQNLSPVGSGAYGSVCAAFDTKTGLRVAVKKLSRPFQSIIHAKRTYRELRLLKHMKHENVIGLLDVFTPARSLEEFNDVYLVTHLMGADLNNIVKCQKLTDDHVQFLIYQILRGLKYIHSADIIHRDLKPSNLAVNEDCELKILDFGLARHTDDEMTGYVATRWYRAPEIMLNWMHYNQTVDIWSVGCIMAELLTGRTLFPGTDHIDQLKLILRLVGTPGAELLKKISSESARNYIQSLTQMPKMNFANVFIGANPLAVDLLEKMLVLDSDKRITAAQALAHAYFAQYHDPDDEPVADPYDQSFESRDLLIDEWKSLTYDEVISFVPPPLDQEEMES
T1 sequence (P08581 25-1390): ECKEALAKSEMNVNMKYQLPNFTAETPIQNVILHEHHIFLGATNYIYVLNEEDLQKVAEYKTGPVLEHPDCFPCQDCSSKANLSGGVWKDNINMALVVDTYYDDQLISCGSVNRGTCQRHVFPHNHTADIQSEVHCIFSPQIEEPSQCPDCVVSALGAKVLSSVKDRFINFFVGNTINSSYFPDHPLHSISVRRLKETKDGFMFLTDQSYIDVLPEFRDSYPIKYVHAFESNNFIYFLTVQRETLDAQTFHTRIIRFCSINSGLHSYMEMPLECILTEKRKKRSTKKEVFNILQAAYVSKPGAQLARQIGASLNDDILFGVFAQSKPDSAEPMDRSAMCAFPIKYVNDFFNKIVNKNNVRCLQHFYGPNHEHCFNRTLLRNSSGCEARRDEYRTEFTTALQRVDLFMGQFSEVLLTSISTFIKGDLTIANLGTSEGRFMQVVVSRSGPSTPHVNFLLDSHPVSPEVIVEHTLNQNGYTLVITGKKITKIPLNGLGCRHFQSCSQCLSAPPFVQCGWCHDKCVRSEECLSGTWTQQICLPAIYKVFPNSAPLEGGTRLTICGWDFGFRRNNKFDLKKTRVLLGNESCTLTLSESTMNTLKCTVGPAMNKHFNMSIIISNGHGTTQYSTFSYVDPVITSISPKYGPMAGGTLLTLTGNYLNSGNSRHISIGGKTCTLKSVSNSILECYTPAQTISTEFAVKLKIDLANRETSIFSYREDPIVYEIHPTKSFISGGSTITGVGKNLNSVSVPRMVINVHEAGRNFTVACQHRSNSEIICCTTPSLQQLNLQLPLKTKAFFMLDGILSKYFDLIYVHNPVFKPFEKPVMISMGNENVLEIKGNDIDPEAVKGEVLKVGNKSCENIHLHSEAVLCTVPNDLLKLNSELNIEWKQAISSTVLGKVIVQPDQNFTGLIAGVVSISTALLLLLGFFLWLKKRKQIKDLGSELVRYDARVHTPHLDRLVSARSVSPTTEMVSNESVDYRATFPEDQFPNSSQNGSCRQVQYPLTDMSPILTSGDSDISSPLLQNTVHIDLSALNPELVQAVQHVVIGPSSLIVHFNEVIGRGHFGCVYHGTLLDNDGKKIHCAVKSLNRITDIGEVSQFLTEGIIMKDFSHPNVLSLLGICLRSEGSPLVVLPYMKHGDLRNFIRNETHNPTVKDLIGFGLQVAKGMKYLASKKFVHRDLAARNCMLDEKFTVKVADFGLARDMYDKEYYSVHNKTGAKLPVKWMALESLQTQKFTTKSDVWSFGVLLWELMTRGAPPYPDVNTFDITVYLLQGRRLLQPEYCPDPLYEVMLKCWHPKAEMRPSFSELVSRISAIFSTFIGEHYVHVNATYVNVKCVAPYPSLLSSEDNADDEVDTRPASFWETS

Structure (SMILES): COc1cc2c(Oc3ccc(NC(=O)C4(C(=O)Nc5ccc(F)cc5)CC4)cc3F)ccnc2cc1OCCCOCCCOCCC(=O)N[C@H](C(=O)N1C[C@H](O)C[C@H]1C(=O)NCc1ccc(-c2scnc2C)cc1)C(C)(C)C [Example 1]
- c-Met protein degradation (dose response) (cMET; ELISA): significant targeted degradation

Structure (SMILES): COc1cc2c(Oc3ccc(NC(=O)C4(C(=O)Nc5ccc(F)cc5)CC4)cc3F)ccnc2cc1OCCOCCOCCOc1cc(-c2scnc2C)ccc1CNC(=O)[C@@H]1C[C@@H](O)CN1C(=O)[C@H](C(C)C)N1Cc2ccccc2C1=O [compound 46]
- Dmax (p38δ): 93%
- DC50 (p38δ): 84.9 nM
- DC50 (p38α): > 5000 nM
- Dmax (p38α): 33%

Structure (SMILES): COc1cc2c(Oc3ccc(NC(=O)C4(C(=O)Nc5ccc(F)cc5)CC4)cc3F)ccnc2cc1OCCCCOCCCCOCC(=O)N[C@H](C(=O)N1C[C@H](O)C[C@H]1C(=O)NCc1ccc(-c2scnc2C)cc1)C(C)(C)C [compound 50, N-(3-fluoro-4-((7-(4-(4-(2-(((S)-1-((2S,4R)-4-hydroxy-2-((4-(4-methylthiazol-5-yl)benzyl)carbamoyl)pyrrolidin-1-yl)-3,3-dimethyl-1-oxobutan-2-yl)amino)-2-oxoethoxy)butoxy)buto-xy)-6-methoxyquinolin-4-yl)oxy)phenyl)-N-(4-fluorophenyl)cyclopropane-1,1-dicarboxa-mide]
- DC50 (cMET): 36 nM
- Dmax (cMET): 88%
- Dmax (p38δ): 18%
- DC50 (p38δ): > 5000 nM
- DC50 (p38α): 9.5 nM
- Dmax (p38α): 99%
